According to patent US9149475B2, “Protein kinase C inhibitors and uses thereof” (Rigel Pharmaceuticals, Inc., priority 2009, dated 2015):
pIC50: −log10 of the molar value. Counter-ions that a name gives are not always drawn.

system: Human primary T cells; assay: IL-2 ELISA, human primary T cell, anti-CD3+CD28+ (whole cell assay); format: cell-based; conditions: Homo sapiens, T-cell, 24 h, human primary T cells stimulated with anti-CD3 + anti-CD28, 24 hours
Outline: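 IL-2 secreted over 24 h at 37° C was quantified by ELISA after plate-bound αCD3 (1 μg/ml) and αCD28 (5 μg/ml) stimulation, or PMA (0.5 ng/ml) with ionomycin (0.1 μM) as counter-screen. Cells were IL-2-starved primary human T cells, expanded from volunteer PBMC and exposed to compound for 1 hr beforehand.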

| SMILES | pIC50 |
| --- | --- |
| CC1(C)CC(Nc2nc(Nc3ccc(OC4CCCN(S(C)(=O)=O)CC4)c(OC(F)F)c3)ncc2F)CC(C)(C)N1 (centres unmarked) [III-90, N2-(3-(difluoromethoxy)-4-(1-(methylsulfonyl)azepan-4-yloxy)phenyl)-5-fluoro-N4-(2,2,6,6-tetramethylpiperidin-4-yl)pyrimidine-2,4-diamine] | 6.00 to 6.30 |
| CC(=O)N1CCC(Oc2c(F)cc(Nc3ncc(F)c(NC4CC(C)(C)N(C)C(C)(C)C4)n3)cc2F)CC1 [III-91, 1-(4-(2,6-difluoro-4-(5-fluoro-4-(1,2,2,6,6-pentamethylpiperidin-4-ylamino)pyrimidin-2-ylamino)phenoxy)piperidin-1-yl)ethanone] | 6.00 to 6.30 |
| CC(=O)N1CCC(Oc2c(F)cc(Nc3ncc(F)c(NC4CC(C)(C)NC(C)(C)C4)n3)cc2F)CC1 [III-92, 1-(4-(2,6-difluoro-4-(5-fluoro-4-(2,2,6,6-tetramethylpiperidin-4-ylamino)pyrimidin-2-ylamino)phenoxy)piperidin-1-yl)ethanone] | < 6.00 |
| CC(C)N1CCC(Oc2ccc(Nc3ncc(F)c(NC4CC(C)(C)N(C)C(C)(C)C4)n3)cc2Cl)CC1 [III-95, N2-(3-chloro-4-(1-isopropylpiperidin-4-yloxy)phenyl)-5-fluoro-N4-(1,2,2,6,6-pentamethylpiperidin-4-yl)pyrimidine-2,4-diamine] | > 6.60 |
| CC1(C)CC(Nc2nc(Nc3ccc(OC4CCN(CCF)CC4)c(Cl)c3)ncc2F)CC(C)(C)N1 [III-96, N2-(3-chloro-4-(1-(2-fluoroethyl)piperidin-4-yloxy)phenyl)-5-fluoro-N4-(2,2,6,6-tetramethylpiperidin-4-yl)pyrimidine-2,4-diamine] | > 6.60 |
| CN1C(C)(C)CC(Nc2nc(Nc3ccc(OC4CCN(CCF)CC4)c(Cl)c3)ncc2F)CC1(C)C [III-97, N2-(3-chloro-4-(1-(2-fluoroethyl)piperidin-4-yloxy)phenyl)-5-fluoro-N4-(1,2,2,6,6-pentamethylpiperidin-4-yl)pyrimidine-2,4-diamine] | > 6.60 |
| CC(C)N1CCC(Oc2ccc(Nc3ncc(F)c(NC4CC(C)(C)NC(C)(C)C4)n3)cc2Cl)CC1 [III-98, N2-(3-chloro-4-(1-isopropylpiperidin-4-yloxy)phenyl)-5-fluoro-N4-(2,2,6,6-tetramethylpiperidin-4-yl)pyrimidine-2,4-diamine] | > 6.60 |
| CN1C(C)(C)CC(Nc2nc(Nc3ccc(O[C@H]4CCOC4)c(OC(F)F)c3)ncc2F)CC1(C)C [III-99, (S)—N2-(3-(difluoromethoxy)-4-(tetrahydrofuran-3-yloxy)phenyl)-5-fluoro-N4-(1,2,2,6,6-pentamethylpiperidin-4-yl)pyrimidine-2,4-diamine] | > 6.60 |
| CC1(C)CC(Nc2nc(Nc3ccc(O[C@H]4CCOC4)c(OC(F)F)c3)ncc2F)CC(C)(C)N1 [III-100, (S)—N2-(3-(difluoromethoxy)-4-(tetrahydrofuran-3-yloxy)phenyl)-5-fluoro-N4-(2,2,6,6-tetramethylpiperidin-4-yl)pyrimidine-2,4-diamine] | 6.30 to 6.60 |

The remaining lines, values ahead:

| pIC50 | SMILES |
| --- | --- |
| > 6.60 | CC(C)N1CCC(Oc2ccc(Nc3ncc(F)c(NC4CC(C)(C)N(C)C(C)(C)C4)n3)cc2C(F)(F)F)CC1 [III-101, 5-fluoro-N2-(4-(1-isopropylpiperidin-4-yloxy)-3-(trifluoromethyl)phenyl)-N4-(1,2,2,6,6-pentamethylpiperidin-4-yl)pyrimidine-2,4-diamine] |
| 6.30 to 6.60 | CC(C)N1CCC(Oc2ccc(Nc3ncc(F)c(NC4CC(C)(C)NC(C)(C)C4)n3)cc2C(F)(F)F)CC1 [III-102, 5-fluoro-N2-(4-(1-isopropylpiperidin-4-yloxy)-3-(trifluoromethyl)phenyl)-N4-(2,2,6,6-tetramethylpiperidin-4-yl)pyrimidine-2,4-diamine] |
| 6.30 to 6.60 | CC(C)N1CCC(Oc2ccc(Nc3ncc(F)c(NC4CC(C)(C)N(C)C(C)(C)C4)n3)cc2OC(F)F)C(F)C1 (centres unmarked) [III-103, N2-(3-(difluoromethoxy)-4-(3-fluoro-1-isopropylpiperidin-4-yloxy)phenyl)-5-fluoro-N4-(1,2,2,6,6-pentamethylpiperidin-4-yl)pyrimidine-2,4-diamine trifluoroacetate salt] |
| 6.00 to 6.30 | CC(C)N1CCC(Oc2ccc(Nc3ncc(F)c(NC4CC(C)(C)NC(C)(C)C4)n3)cc2OC(F)F)C(F)C1 (centres unmarked) [III-104, N2-(3-(difluoromethoxy)-4-(3-fluoro-1-isopropylpiperidin-4-yloxy)phenyl)-5-fluoro-N4-(2,2,6,6-tetramethylpiperidin-4-yl)pyrimidine-2,4-diamine trifluoroacetate salt] |
| 6.00 to 6.30 | CC(C)N1CCC(Oc2ccc(Nc3ncc(F)c(NC4CC(C)(C)N(C)C(C)(C)C4)n3)cc2OC(F)F)C(F)(F)C1 (centres unmarked) [III-107, N2-(4-(3,3-difluoro-1-isopropylpiperidin-4-yloxy)-3-(difluoromethoxy)phenyl)-5-fluoro-N4-(1,2,2,6,6-pentamethylpiperidin-4-yl)pyrimidine-2,4-diamine] |
| 6.00 to 6.30 | CC(C)N1CCC(Oc2ccc(Nc3ncc(F)c(NC4CC(C)(C)NC(C)(C)C4)n3)cc2OC(F)F)C(F)(F)C1 (centres unmarked) [III-108, N2-(4-(3,3-difluoro-1-isopropylpiperidin-4-yloxy)-3-(difluoromethoxy)phenyl)-5-fluoro-N4-(2,2,6,6-tetramethylpiperidin-4-yl)pyrimidine-2,4-diamine] |
| 6.00 to 6.30 | CC1(C)CC(Nc2nc(Nc3ccc(OC4CCOCC4)c(F)c3)ncc2F)CC(C)(C)N1 [III-109, 5-fluoro-N2-(3-fluoro-4-(tetrahydro-2H-pyran-4-yloxy)phenyl)-N4-(2,2,6,6-tetramethylpiperidin-4-yl)pyrimidine-2,4-diamine] |
| > 6.60 | [2H]C([2H])([2H])N1C(C)(C)CC(Nc2nc(Nc3ccc(OC4CCN(C(C)C)CC4)c(OC(F)F)c3)ncc2F)CC1(C)C [III-110, N2-(3-(difluoromethoxy)-4-(1-isopropylpiperidin-4-yloxy)phenyl)-5-fluoro-N4-(1-trideuteromethyl-2,2,6,6-tetramethylpiperidin-4-yl)pyrimidine-2,4-diamine] |
| > 6.60 | [2H]C([2H])([2H])N1C(C)(C)CC(Nc2nc(Nc3ccc(OC4CCN(C(C)C)CC4)c(Cl)c3)ncc2F)CC1(C)C [III-111, N2-(3-(chloro)-4-(1-isopropylpiperidin-4-yloxy)phenyl)-5-fluoro-N4-(1-trideuteromethyl-2,2,6,6-tetramethylpiperidin-4-yl)pyrimidine-2,4-diamine] |

same assay, conditions: human primary T cells stimulated with anti-CD3 + anti-CD28, 24 hours

| pIC50 | SMILES |
| --- | --- |
| > 6.60 | CC(C)N1CCC(Oc2ccc(Nc3ncc(F)c(NC4CC(C)(C)N(C)C(C)(C)C4)n3)cc2OC(F)F)C(F)C1 (centres unmarked) [III-105, N2-(3-(difluoromethoxy)-4-(3-fluoro-1-isopropylpiperidin-4-yloxy)phenyl)-5-fluoro-N4-(1,2,2,6,6-pentamethylpiperidin-4-yl)pyrimidine-2,4-diamine] |
| > 6.60 | CC(C)N1CCC(Oc2ccc(Nc3ncc(F)c(NC4CC(C)(C)NC(C)(C)C4)n3)cc2OC(F)F)C(F)C1 (centres unmarked) [III-106, N2-(3-(difluoromethoxy)-4-(3-fluoro-1-isopropylpiperidin-4-yloxy)phenyl)-5-fluoro-N4-(2,2,6,6-tetramethylpiperidin-4-yl)pyrimidine-2,4-diamine] |
